Where no end group is shown, it is not given here.
Assays:
endothelial cells [1] = assay: Effect of Aβ peptides on binding of VEGF with the receptors on endothelial cells; type: cell-based; conditions: 1 μM; data not shown
endothelial cells [2] = assay: Effect of Aβ peptides on proliferation of endothelial cells induced by VEGF; type: cell-based; conditions: 1 μM; data not shown
MDA-MB-231 tumor cells = assay: Effect of Aβ peptides on binding of VEGF to tumor cells that express neuropilin-1; type: cell-based; conditions: data not shown
PC12 cells [3] = assay: MTT assay, cytotoxicity of Aβ; type: cell-based; set-up: dose or concentration left out as unconfirmed; conditions: Aβ1-42 incubated with VEGF165 or GST-HBD at 37° C. for 24 hours; PC12 cells 24 hours
Experimental: The mixture was added to PC12 cells (2×10^4, cells/well, kindly provided by Dr. Pann-Ghill Suh), and then left for reaction at 37° C. for 24 hours. Then, 1/10 volume of 5 mg/ml MTT solution was added to the resulted mixture, and reacted for 2 hours. The obtained cells were lysed by 25% dimethylformamide/10% SDS. Thereafter, the absorbance of the lysate was measured at 570 nm, and then, compared with that of control of non-treated PC12 cells, to determine the reduction of MTT, and thereby determining the viability of the cells.

PC12 cells [4] = assay: Ethidium fluorescence assay, cytotoxicity of Aβ; type: cell-based; conditions: 5 μM Aβ1-42 incubated with VEGF or GST-HBD at 37° C. for 24 hours; PC12 cells 24 hours
Experimental: The mixture was added to PC12 cells (2×10^4, cells/well, kindly provided by Dr. Pann-Ghill Suh), and then left for reaction at 37° C. for 24 hours. Then, equal volume of 4 μM ethidium homodimer-1 was added to the resulted mixture, and reacted for 30 minutes. Thereafter, the fluorescence of the mixture was measured at Ex=530 nm and Em=645 nm, and then, compared with that of control of non-treated PC12 cells, to determine the cytotoxicity of Aβ.

Aβ1-42 = molecular target: T1, Aβ1-42 (Homo sapiens, UniProt P05067); assay: Thioflavin T assay of Aβ aggregation; type: biochemical; conditions: 24 hours
T1 construct: Aβ1-40, Aβ1-42, and Aβ40-1 (BACHEM, Bubendorf, Switzerland) were immobilized on a CM5 sensor chip; purchased BACHEM
Experimental: 10 μM of thioflavin T was added to the mixture and sufficiently mixed. Then, the fluorescence of the mixture was measured at Ex=444 nm and Em=485 nm, and then, compared with that of control of Aβ incubated alone, to determine the affection on aggregation of Aβ.
50 μM Aβ was incubated at 37° C. for 24 hours together with triamterene of 0 μM, 4 μM, 20 μM or 100 μM, respectively, to generate aggregation of Aβ. Then, the degree of aggregation was determined by the thioflavin T assay as illustrated in Example 11.

PC12 cells [5] = assay: DCF fluorescence, generation of reactive oxygen species by Aβ; type: cell-based; conditions: PC12 cells 3 hours
Experimental: 5 μM VEGF165 or 5 μM GST-HBD and 5 μM Aβ1-42 were mixed and incubated at 37° C. for 24 hours. The mixture was added to PC12 cells (6×10^4, cells/well, kindly provided by Dr. Pann-Ghill Suh), and then left for reaction at 37° C. for 3 hours. Then, 100 μM of DCF solution was added to the resulted mixture, reacted for 30 minutes, and then washed with PBS (phosphate-buffered saline). The obtained cells were observed through a fluorescent microscope, and DCF fluorescence was measured, to calculate the level of generation of the reactive oxygen species.

immobilized VEGF165 = molecular target: T2, immobilized VEGF165 (Homo sapiens, UniProt P15692); assay: Determination of VEGF binding region in Aβ, competition by Aβ fragments; conditions: Aβ1-42 50 nM; 30 μM or 50 μM Aβ fragment
T2 sequence (P15692 27-191 isoform P15692-4): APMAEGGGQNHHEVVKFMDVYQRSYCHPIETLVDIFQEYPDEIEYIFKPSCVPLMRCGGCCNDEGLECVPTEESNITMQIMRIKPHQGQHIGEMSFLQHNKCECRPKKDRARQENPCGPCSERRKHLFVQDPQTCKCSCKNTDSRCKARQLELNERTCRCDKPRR
Experimental: After removing unbound Aβ, the bound Aβ was determined by binding of rabbit anti-Aβ antibody followed by anti-rabbit antibody conjugated with horse radish peroxidase. […] The bound biotinylated Aβ was determined with streptavidin conjugated with horse radish peroxidase.

Aβ [6] = molecular target: T3, Aβ (Homo sapiens, UniProt P05067); assay: Binding of growth factors to Aβ; conditions: among NGF, bFGF, PDGF, VEGF and midkine
T3 construct: Aβ (Aβ) is the major component of senile plaques and is derived from the amyloid precursor protein by proteolytic cleavage

[7] = molecular target: T4, VEGF/Aβ interaction (VEGF165, biotinylated Aβ) (Homo sapiens, UniProt P15692); assay: Inhibition of biotinylated Aβ binding to coated VEGF165; conditions: VEGF165 50 ng/well; biotinylated Aβ 100 ng/ml; increasing concentration of test compound
T4 sequence (P15692 27-191 isoform P15692-4 limits assumed): T2 sequence (P15692 27-191 isoform P15692-4)
Experimental: Biotinylated Aβ (100 ng/ml) was added to each well in the presence of increasing concentration of test compound. After 2 hours, each well was rinsed several times with 0.05% Tween in PBS. The bound biotinylated Aβ was determined with steptavidin conjugated with horse radish peroxidase.

Aβ [8] = molecular target: T3, Aβ; assay: Determination of Aβ binding region in VEGF, immobilized GST-fusion proteins; conditions: GST-fusion proteins 200 nM immobilized; 200 nM Aβ
Experimental: The purified proteins were analyzed with 12% SDS-polyacrylmide gel electrophoresis. […] After blocking nonspecific binding sites with 3% BSA/PBS, 200 nM of Aβ was added to each well and allowed to bind to immobilized proteins. Unbound Aβ was removed and the bound Aβ was determined with rabbit anti-Aβ antibody followed by anti-rabbit antibody conjugated with horse radish peroxidase.

[9] = molecular target: T5, Aβ-VEGF binding (VEGF, biotinylated Aβ1-42) (Homo sapiens, UniProt P15692); assay: Aβ-VEGF binding in presence of triamterene; conditions: 100 nM VEGF, 100 nM biotinylated Aβ1-42, 37° C., 24 hours
T5 sequence (P15692 27-191 isoform P15692-4 limits assumed): T2 sequence (P15692 27-191 isoform P15692-4)
Experimental: The level of the formation of the Aβ-VEGF binding was measured and compared with that of control without triamterene.

VEGF receptor, KDR-Fc = VEGF receptor, KDR-Fc (Homo sapiens, UniProt P35968); conditions: VEGF 12 nM immobilized; 0.3 nM KDR-Fc
Experimental: After removing unbound KDR-Fc, the bound KDR-Fc was determined by binding of mouse anti-Fc antibody followed by anti-mouse antibody conjugated with horse radish peroxidase.

Aβ [10] = molecular target: T3, Aβ; assay: Inhibition of the aggregation of Aβ by Aβ-VEGF binding inhibitors; type: biochemical
Aβ-VEGF binding = molecular target: T6, Aβ-VEGF binding (Homo sapiens, UniProt P15692); assay: Search for an inhibitor of Aβ-VEGF binding
T6 construct: Aβ (Aβ) is the major component of senile plaques and is derived from the amyloid precursor protein by proteolytic cleavage
T6 sequence (P15692 27-191 isoform P15692-4 limits assumed): T2 sequence (P15692 27-191 isoform P15692-4)

[11] = molecular target: T7, VEGF/Aβ interaction (GST-heparin-binding domain, biotinylated Aβ1-42) (Homo sapiens, UniProt P15692); assay: Heparin inhibition of biotinylated Aβ1-42 binding to immobilized GST-heparin-binding domain; conditions: GST-heparin-binding domain 100 nM immobilized; biotinylated Aβ1-42 50 nM
T7 construct: made in house
T7 sequence (P15692 137-191 isoform P15692-4): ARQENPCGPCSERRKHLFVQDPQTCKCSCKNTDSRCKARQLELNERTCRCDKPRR
Experimental: After removing unbound biotinylated Aβ, the bound peptide was determined with steptavidin conjugated with horse radish peroxidase.

Chain of VEGF receptor, KDR-Fc (P35968 with tags, fused parts or gaps limits assumed): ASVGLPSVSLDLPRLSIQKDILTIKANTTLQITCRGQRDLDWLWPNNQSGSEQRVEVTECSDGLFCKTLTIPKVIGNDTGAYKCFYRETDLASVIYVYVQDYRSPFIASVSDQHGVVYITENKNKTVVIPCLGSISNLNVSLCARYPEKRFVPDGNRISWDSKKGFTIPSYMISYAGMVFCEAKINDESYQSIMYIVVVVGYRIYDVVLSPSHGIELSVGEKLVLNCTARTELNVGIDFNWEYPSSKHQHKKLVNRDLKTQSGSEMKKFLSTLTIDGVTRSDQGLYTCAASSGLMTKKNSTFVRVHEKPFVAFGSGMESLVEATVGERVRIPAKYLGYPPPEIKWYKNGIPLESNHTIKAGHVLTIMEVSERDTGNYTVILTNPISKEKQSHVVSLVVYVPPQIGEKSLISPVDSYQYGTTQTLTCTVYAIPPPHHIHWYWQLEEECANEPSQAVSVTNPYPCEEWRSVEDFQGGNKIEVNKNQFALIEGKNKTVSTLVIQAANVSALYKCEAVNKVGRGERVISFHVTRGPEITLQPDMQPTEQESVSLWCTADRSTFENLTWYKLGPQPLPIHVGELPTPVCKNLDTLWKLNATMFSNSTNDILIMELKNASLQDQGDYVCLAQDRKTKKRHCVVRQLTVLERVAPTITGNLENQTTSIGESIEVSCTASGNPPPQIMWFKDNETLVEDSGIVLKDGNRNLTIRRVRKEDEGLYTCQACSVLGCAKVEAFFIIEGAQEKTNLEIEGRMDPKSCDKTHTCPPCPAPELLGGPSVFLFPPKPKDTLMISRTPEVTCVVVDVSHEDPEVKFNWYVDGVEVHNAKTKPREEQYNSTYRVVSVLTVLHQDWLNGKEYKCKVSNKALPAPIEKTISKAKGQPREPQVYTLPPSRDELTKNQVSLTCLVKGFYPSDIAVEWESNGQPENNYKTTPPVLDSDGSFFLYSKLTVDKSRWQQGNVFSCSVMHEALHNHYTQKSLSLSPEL

Molecule: Aβ1-42: β-amyloid peptide 1-42, SEQ ID NO:4
- effect on the binding of VEGF with the receptors on endothelial cells (endothelial cells [1]): Neither Aβ1-40 nor Aβ1-42, even at a high concentration (1 μM), affected
- effect on the proliferation of endothelial cells induced by VEGF (endothelial cells [2]): Neither Aβ1-40 nor Aβ1-42, even at a high concentration (1 μM), affected
- effect on the binding of VEGF to MDA-MB-231 tumor cells (MDA-MB-231 tumor cells): Neither did Aβ1-40 nor Aβ1-42 affect

Molecule: HBD: full heparin-binding domain of VEGF165 (SEQ ID NO:2) fused to GST (ARQENPCGPCSERRKHLFVQDPQTCKCSCKNTDSRCKARQLELNERTCRCDKPRR; cysteine pairing not given here; also: fused to GST)
- inhibition of the cytotoxicity of Aβ (MTT reduction) (PC12 cells [3]): exhibits the activity to inhibit the cytotoxicity of Aβ
- inhibition of the cytotoxicity of Aβ (ethidium homodimer-1 fluorescence) (PC12 cells [4]): inhibit the cytotoxicity of Aβ depending on the concentration
- inhibition of aggregation of Aβ (thioflavin T) (Aβ1-42; 50 μM Aβ1-42, 37° C., VEGF or GST-HBD at various concentrations): inhibit aggregation of Aβ depending on the concentration
- generation of the reactive oxygen species, treatment alone (PC12 cells [5]; 5 μM VEGF165 or 5 μM GST-HBD alone): no effect on the generation of the reactive oxygen species
- generation of the reactive oxygen species by Aβ, treatment together with Aβ (PC12 cells [5]; 5 μM VEGF165 or 5 μM GST-HBD with 5 μM Aβ1-42): inhibitory effect on the generation of the reactive oxygen species by Aβ

Molecule: Aβ25-35: partial fragment of Aβ, residues 25-35 of SEQ ID NO:4 (GSNRGAIIGLM; listed as Homo sapiens)
- competition with Aβ for binding to immobilized VEGF165 (immobilized VEGF165): competes with Aβ for its binding to immobilized VEGF165

Molecule: NGF: nerve growth factor
- binding of growth factor to Aβ (Aβ [6]): only VEGF and midkine bound to A

Molecule: tannic acid
- inhibition of binding of Aβ to VEGF [7]: inhibition

Molecule: GST-CHBD: C-terminal half (amino acid 29-55) of heparin-binding domain fused to GST (CKNTDSRCKARQLELNERTCRCDKPRR; cysteine pairing not given here; also: fused to GST)
- binding of Aβ to immobilized GST-fusion protein (Aβ [8]): Aβ binds to C-terminal sub-domain of heparin-binding domain

Molecule: Nc1nc(N)c2nc(-c3ccccc3)c(N)nc2n1 [triamterene]
- affection on aggregation of Aβ (thioflavin T) (Aβ1-42; 50 μM Aβ, 37° C., triamterene 0, 4, 20 or 100 μM): no affection on aggregation of Aβ regardless of the concentration
- inhibition of the Aβ-VEGF binding [9]: concentration-dependently inhibits the binding between Aβ and VEGF
- affection on the VEGF-VEGF receptor binding (VEGF receptor, KDR-Fc): no affection on the VEGF-VEGF receptor binding regardless of the concentration

Molecule: fucoidan
- activity to inhibit the aggregation of Aβ by itself (Aβ [10]): additional activity to inhibit the aggregation of Aβ by itself
- inhibitor of Aβ-VEGF binding (search) (Aβ-VEGF binding): searched as an inhibitor of Aβ-VEGF binding

Molecule: heparin
- IC50, inhibition of binding of biotinylated Aβ1-42 to heparin-binding domain [11]: ~0.025 µg/mL

Molecule: O=C(O[C@@H]1Cc2c(O)cc(O)cc2O[C@@H]1c1cc(O)c(O)c(O)c1)c1cc(O)c(O)c(O)c1 [EGCG, epigallocatechin gallate, reference compound]
- inhibition of binding of Aβ to VEGF [7]: inhibition
- activity to inhibit the aggregation of Aβ by itself (Aβ [10]): additional activity to inhibit the aggregation of Aβ by itself

Molecule: Aβ1-40: β-amyloid peptide residues 1-40 (BACHEM)
- effect on the binding of VEGF with the receptors on endothelial cells (endothelial cells [1]): Neither Aβ1-40 nor Aβ1-42, even at a high concentration (1 μM), affected
- effect on the proliferation of endothelial cells induced by VEGF (endothelial cells [2]): Neither Aβ1-40 nor Aβ1-42, even at a high concentration (1 μM), affected
- effect on the binding of VEGF to MDA-MB-231 tumor cells (MDA-MB-231 tumor cells): Neither did Aβ1-40 nor Aβ1-42 affect

Molecule: PDGF
- binding of growth factor to Aβ (Aβ [6]): only VEGF and midkine bound to A

Molecule: bFGF: basic fibroblast growth factor
- binding of growth factor to Aβ (Aβ [6]): only VEGF and midkine bound to A

B1: midkine: heparin-binding, neurotrophic growth factor whose expression occurs mainly in fetus (protein)
chain: VAKKKDKVKKGGPGSECAEWAWGPCTPSSKDCGVGFREGTCGAQTQRIRCRVPCNWKKEFGADCKYKFENWGACDGGTGTKVRQGTLKKARYNAQCQETIRVTKPCTPKTKAKAKAKKGKGKD
- binding of growth factor to Aβ (Aβ [6]): bound to A
